Where no end group is shown, it is not given here.
Key:
[1] = biological target: T1, IAPP (Homo sapiens, UniProt P10997); assay: Kinetic assay of IAPP fibre formation (ThT fluorescence), in solution or catalysed by LUVs; assay type: biochemical; conditions: 10 μM IAPP, 630 μM LUVs, IAPP:small molecule 1:1
T1 construct: purchased Genscript; Elim Biopharmaceuticals
T1 sequence (P10997 34-70 limits assumed): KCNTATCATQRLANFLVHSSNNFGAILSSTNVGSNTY
Protocol: Unless otherwise stated, LUVs used in this work were prepared from a 1:1 mixture of DOPG/DOPC. The lyophilized mixture was hydrated in 100 mM KCl, 50 mM sodium phosphate, and pH 7.4 for 20 minutes. A 20 mg/mL solution of lipid in buffer was passed 21 times through a polycarbonate membrane (pore diameter=100 nm).
Amyloid reactions were conducted in buffer containing liposome (630 μM lipid) and 20 μM ThT in a black 96-well plate. This was followed by addition of small molecule dissolved in DMSO (final DMSO concentration=0.5%, v/v). […] The final volume in each well was 200 μL. Kinetics of fibrillation was monitored by ThT fluorescence (Ex 450 nm and Em 485 nm) using a FluoDia T70 fluorescence plate reader (Photon Technology International, Edison, NJ, USA). […] Each kinetic trace was fit to a sigmoidal form:

[2] = tested on: INS-1 cells; assay: Cell viability (Cell-Titer Blue), IAPP induced toxicity and rescue; assay type: cell-based, rat; conditions: 13 μM IAPP; for rescue of IAPP induced toxicity, co-addition: 1:1 IAPP:ligand co-added, 48 h
Protocol: Rat insulinoma INS-1 cells (832/13, Dr. Gary W. Cline, Department of Internal Medicine, Yale University) were cultured at 37° C. and 5% CO2 in phenol red free RPMI 1640 media supplemented with 10% fetal bovine serum, 1% penicillin/streptomycin (Life Technologies, Carlsbad, CA, USA), and 2% INS-1 stock solution (500 mM HEPES, 100 mM L-glutamine, 100 mM sodium pyruvate, and 2.5 mM β-mercaptoethanol). Cells were passaged upon reaching ˜95% confluence (0.25% Trypsin-EDTA, Life Technologies), propagated, and/or used in experiments. Cells used in experiments were pelleted and resuspended in fresh media with no Trypsin-EDTA.
Cell viability was measured colourimetrically using the Cell-Titer Blue (CTB, Promega, Madison, WI, USA) fluorescence-based assay. Cells were plated at a density 5000 cells/well in 96-well plates (BD Biosciences, San Diego, CA). Peptide was directly introduced to each well after 48 h of culture and then further incubated for an additional 48 h. For time dependent experiments, cells were incubated with peptide for the specified time points. After the incubation period, 20 μL CTB reagent was added to each well and incubated at 37° C. and 5% CO2 for 2.5-3.5 h. Fluorescence of the resorufin product was measured on a FluoDia T70 fluorescence plate reader (Photon Technology International, Birmingham, NJ, USA). All wells included the same amount of water to account for different concentrations of peptide added to sample wells. Wells that included water vehicle but not peptide served as the negative control (0% toxic), and wells containing 10% DMSO were the positive control (100% toxic). Percent toxicity was calculated using the following equation: […]
Each independent variable is the average of eight plate replicates from the negative control (<N>), positive control (<P>), and samples (<S>). Results presented for viability experiments are an average of three such experiments conducted independently on different days. Error bars represent the standard error of the mean.

[3] = tested on: Src and its homologue, Abl; conditions: background statement; cited from earlier work
[4] = biological target: T2, IAPP20-29 (Homo sapiens, UniProt P10997); assay: Amyloid assembly kinetics of the 10-residue peptide IAPP20-29; assay type: biochemical; conditions: 200 μM IAPP20-29
T2 construct: the 10-residue sub-peptide, IAPP20-29
Protocol: Amyloid reactions were conducted in buffer containing liposome (630 μM lipid) and 20 μM ThT in a black 96-well plate. This was followed by addition of small molecule dissolved in DMSO (final DMSO concentration=0.5%, v/v). Fibre formation was initiated by addition of IAPP stock solution. The final volume in each well was 200 μL. Kinetics of fibrillation was monitored by ThT fluorescence (Ex 450 nm and Em 485 nm) using a FluoDia T70 fluorescence plate reader (Photon Technology International, Edison, NJ, USA). The data were blank subtracted and renormalized to the maximum intensity of reactions containing only IAPP. Each kinetic trace was fit to a sigmoidal form:
[formula] where I is the fluorescence intensity, t is time, and b, m, and r are dependent fitting variables. All samples were run at least in triplicate and error bars shown in the text represent ±one standard deviation. Transmission Electron Microscopy

Compound | effect on liposome catalysed fibrillation [1] | rescue of IAPP induced toxicity, co-addition [2] | further results
COC(=O)c1cc(OCC(=O)O)c2cccc(NC(=O)c3cc(OCC(=O)O)c4cccc(NC(=O)c5cc(OCC(=O)O)c6cccc(NC(=O)c7cc(OCC(=O)O)c8cccc(NC(=O)c9cc(OCC(=O)O)c%10cccc([N+](=O)[O-])c%10n9)c8n7)c6n5)c4n3)c2c1 [ADM-118] | – | – | inhibition of liposome catalysed fibrillation, t50 relative to control [1]: 3.3±0.1 fold
O=C(O[C@@H]1Cc2c(O)cc(O)cc2O[C@@H]1c1cc(O)c(O)c(O)c1)c1cc(O)c(O)c(O)c1 [EGCG] | no detectable effect | ineffective in rescuing toxicity | –
Cc1ccc(NC(=O)c2ccc(CN3CCN(C)CC3)cc2)cc1Nc1nccc(-c2cccnc2)n1 [Gleevec] | – | – | difference in binding affinity between Src and Abl [3]: > 1,000 fold
Oc1ccc(C=Cc2cc(O)cc(O)c2)cc1 [resveratrol] | no detectable effect | ineffective in rescuing toxicity | –
IAPP20-29: 10-residue sub-peptide of IAPP, residues 20-29 (SNNFGAILSS; Islet amyloid polypeptide; UniProt P10997 53-62, looked up, fragment) | – | – | t50 of amyloid formation [4]: 6.6 ± 0.3 h
IAPP: 37-residue, C-terminally amidated human islet amyloid polypeptide (SEQ ID NO:1) (KCNTATCATQRLANFLVHSSNNFGAILSSTNVGSNTY-NH2; cysteine pairing not given here) | – | – | decrease of INS-1 viability ([2]; 48 h incubation): 78±8%
acid fuchsin | no detectable effect | ineffective in rescuing toxicity | –
